# In patent US10457687B2, “Aminoacid derivatives, a process for their preparation and pharmaceutical compositions containing them” (LES LABORATOIRES SERVIER, priority 2015, dated 2019):
# Target: Mcl-1 protein (Homo sapiens, UniProt Q07820)
# Assay: Inhibition of Mcl-1 by the fluorescence polarisation technique (Method 1 or Method 2)
# Format: binding
# Conditions: fluorescence polarisation, Fluorescein labelled ligand; Method 1 (not underlined) or Method 2 (underlined); read-out: IC50 (μM) Mcl-1 FP
# Procedure: The relative binding potency of each compound was determined via Fluorescence Polarisation (FP).
# An 11 point serial dilution of each compound was prepared in DMSO and 2 μl transferred into flat bottomed, low binding, 384-well plate (final DMSO concentration 5%). 38 μl of buffer (10 mM 4-(2-hydroxyethyl)-1-piperazineethanesulfonic acid [HEPES], 150 mM NaCl, 0.05% Tween 20, pH 7.4), containing the Fluorescein labelled ligand (final concentration 1 nM) and Mcl-1 protein (final concentration 5 nM) was then added.
# An 11 point serial dilution of each compound was prepared in DMSO and 2 μl transferred into flat bottomed, low binding, 384-well plate (final DMSO concentration 5%). 38 μl of buffer (20 mM Na2HPO4, 1 mM EDTA, 50 mM NaCl, pH 7.4), containing the Fluorescein labelled ligand (final concentration 10 nM) and Mcl-1 protein (final concentration 10 nM) was then added.
# Chain of Mcl-1 protein (Q07820 whole entry): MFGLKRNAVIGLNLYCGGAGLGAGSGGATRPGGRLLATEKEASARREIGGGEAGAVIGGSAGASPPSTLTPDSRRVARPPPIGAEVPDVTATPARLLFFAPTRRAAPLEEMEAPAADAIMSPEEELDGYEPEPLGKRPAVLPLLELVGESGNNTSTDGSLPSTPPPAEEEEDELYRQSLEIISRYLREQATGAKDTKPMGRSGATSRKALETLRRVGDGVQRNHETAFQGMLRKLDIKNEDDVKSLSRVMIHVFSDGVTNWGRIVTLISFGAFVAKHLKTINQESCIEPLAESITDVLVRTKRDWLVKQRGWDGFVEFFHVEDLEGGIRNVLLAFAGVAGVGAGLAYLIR
row,IC50,SMILES
1,0.106 µM,"CCc1sc2ncnc(NC(Cc3ccccc3)C(=O)O)c2c1-c1ccc(OCC(=O)O)c(Cl)c1C [Example 57, N-{(5Sa)-5-[4-(carboxymethoxy)-3-chloro-2-methylphenyl]-6-ethylthieno[2,3-d]pyrimidin-4-yl}-D-phenylalanine]"
2,0.127 µM,"CCc1sc2ncnc(NC(Cc3ccccc3)C(=O)O)c2c1-c1ccc(OCCN(C)C)c(Cl)c1C [Example 59, N-((5Sa)-5-{3-chloro-4-[2-(dimethylamino)ethoxy]-2-methylphenyl}-6-ethylthieno[2,3-d]pyrimidin-4-yl)-L-phenylalanine]"
3,0.092 µM,"CCc1sc2ncnc(NC(Cc3ccccc3)C(=O)O)c2c1-c1ccc(OCCCN(C)C)c(Cl)c1C [Example 60, N-((5Sa)-5-{3-chloro-4-[3-(dimethylamino)propoxy]-2-methylphenyl}-6-ethylthieno[2,3-d]pyrimidin-4-yl)-D-phenylalanine]"
4,0.036 µM,"CCc1sc2ncnc(NC(Cc3ccccc3)C(=O)O)c2c1-c1ccc(OCCN2CCOCC2)c(Cl)c1C [Example 61, N-((5Sa)-5-{3-chloro-2-methyl-4-[2-(morpholin-4-yl)ethoxy]phenyl}-6-ethylthieno[2,3-d]pyrimidin-4-yl)-D-phenylalanine]"
5,0.06 µM,"CCc1sc2ncnc(NC(Cc3ccccc3)C(=O)O)c2c1-c1ccc(OCCN2CCN(C)CC2)c(Cl)c1C [Example 62, N-((5Sa)-5-{3-chloro-2-methyl-4-[2-(4-methylpiperazin-1-yl)ethoxy]phenyl}-6-ethylthieno[2,3-d]pyrimidin-4-yl)-D-phenylalanine]"
6,0.025 µM,"CCc1sc2ncnc(NC(Cc3ccccc3)C(=O)O)c2c1-c1ccc(OCCCN2CCN(C)CC2)c(Cl)c1C [Example 64, N-((5Sa)-5-{3-chloro-2-methyl-4-[3-(4-methylpiperazin-1-yl)propoxy]phenyl}-6-ethylthieno[2,3-d]pyrimidin-4-yl)-D-phenylalanine]"
7,2.08 µM,"CCc1sc2ncnc(N[C@H](Cc3ccccc3)C(=O)O)c2c1-c1cccc(O)c1C [Example 67, N-[6-ethyl-5-(3-hydroxy-2-methylphenyl)thieno[2,3-d]pyrimidin-4-yl]-D-phenylalanine]"
8,0.142 µM,"CCc1sc2ncnc(N[C@H](Cc3ccccc3)C(=O)O)c2c1-c1cccc(F)c1C [Example 68, N-[6-ethyl-5-(3-fluoro-2-methylphenyl)thieno[2,3-d]pyrimidin-4-yl]-D-phenylalanine]"
9,0.109 µM,"CCc1sc2ncnc(NC(Cc3ccccc3)C(=O)O)c2c1-c1cccc(F)c1C [Example 69, N-[6-ethyl-(5Sa)-5-(3-fluoro-2-methylphenyl)thieno[2,3-d]pyrimidin-4-yl]-D-phenylalanine]"
10,0.974 µM,"CCc1sc2ncnc(NC(Cc3ccccc3)C(=O)O)c2c1-c1cccc(F)c1C [Example 70, N-[6-ethyl-(5Ra)-5-(3-fluoro-2-methylphenyl)thieno[2,3-d]pyrimidin-4-yl]-D-phenylalanine]"
11,0.276 µM,"CCc1sc2ncnc(NC(Cc3ccccc3)C(=O)O)c2c1-c1cccc2[nH]ccc12 [Example 73, N-[6-ethyl-(5Sa)-5-(1H-indol-4-yl)thieno[2,3-d]pyrimidin-4-yl]-D-phenylalanine]"
12,0.621 µM,"CCc1sc2ncnc(NC(Cc3ccccc3)C(=O)O)c2c1-c1cccc2[nH]ccc12 [Example 74, N-[6-ethyl-(5Ra)-5-(1H-indol-4-yl)thieno[2,3-d]pyrimidin-4-yl]-D-phenylalanine]"
13,0.28 µM,"CCc1sc2ncnc(NC(Cc3ccccc3)C(=O)O)c2c1-c1cccc(OC)c1C [Example 75, N-[6-ethyl-(5Sa)-5-(3-methoxy-2-methylphenyl)thieno[2,3-d]pyrimidin-4-yl]-D-phenylalanine]"
14,3.18 µM,"CCc1sc2ncnc(NC(Cc3ccccc3)C(=O)O)c2c1-c1cccc(OC)c1C [Example 76, N-[6-ethyl-(5Ra)-5-(3-methoxy-2-methylphenyl)thieno[2,3-d]pyrimidin-4-yl]-D-phenylalanine]"
15,0.135 µM,"CCc1sc2ncnc(NC(Cc3ccccc3)C(=O)O)c2c1-c1ccnc(Cl)c1C [Example 78, N-[(5Sa)-5-(2-chloro-3-methylpyridin-4-yl)-6-ethylthieno[2,3-d]pyrimidin-4-yl]-D-phenylalanine]"
16,0.429 µM,"CCc1sc2ncnc(N[C@H](Cc3ccccc3)C(=O)O)c2c1-c1cccc2ccccc12 [Example 79, N-[6-ethyl-5-(naphthalen-1-yl)thieno[2,3-d]pyrimidin-4-yl]-D-phenylalanine]"
17,0.487 µM,"CCc1sc2ncnc(N[C@H](Cc3ccccc3)C(=O)O)c2c1-c1cccc2ncccc12 [Example 80, N-[6-ethyl-5-(quinolin-5-yl)thieno[2,3-d]pyrimidin-4-yl]-D-phenylalanine]"
18,20.2 µM,"CCc1sc2ncnc(NC(Cc3ccccc3)C(=O)O)c2c1-c1cncc2ccccc12 [Example 81, N-[6-ethyl-(5Sa)-5-(isoquinolin-4-yl)thieno[2,3-d]pyrimidin-4-yl]-D-phenylalanine]"
19,1.11 µM,"CCc1sc2ncnc(NC(Cc3ccccc3)C(=O)O)c2c1-c1cncc2ccccc12 [Example 82, N-[6-ethyl-(5Ra)-5-(isoquinolin-4-yl)thieno[2,3-d]pyrimidin-4-yl]-D-phenylalanine]"
20,0.258 µM,"CCc1sc2ncnc(NC(Cc3ccccc3)C(=O)O)c2c1-c1cccc2ccn(C)c12 [Example 83, N-[6-ethyl-(5Sa)-5-(1-methyl-1H-indol-7-yl)thieno[2,3-d]pyrimidin-4-yl]-D-phenylalanine]"
21,4.02 µM,"CCc1sc2ncnc(NC(Cc3ccccc3)C(=O)O)c2c1-c1cccc2ccn(C)c12 [Example 84, N-[6-ethyl-(5Ra)-5-(1-methyl-1H-indol-7-yl)thieno[2,3-d]pyrimidin-4-yl]-D-phenylalanine]"
22,1.23 µM,"CCc1sc2ncnc(NC(Cc3ccccc3)C(=O)O)c2c1-c1cccc2cnn(C)c12 [Example 88, N-[6-ethyl-(5Sa)-5-(1-methyl-1H-indazol-7-yl)thieno[2,3-d]pyrimidin-4-yl]-D-phenylalanine]"
23,1.63 µM,"CCc1sc2ncnc(NC(Cc3ccccc3)C(=O)O)c2c1-c1cccc(Br)c1C [Example 96, N-[(5Ra)-5-(3-bromo-2-methylphenyl)-6-ethylthieno[2,3-d]pyrimidin-4-yl]-D-phenylalanine]"
24,0.073 µM,"CCc1sc2ncnc(NC(Cc3ccccc3)C(=O)O)c2c1-c1cccc(Br)c1C [Example 97, N-[(5Sa)-5-(3-bromo-2-methylphenyl)-6-ethylthieno[2,3-d]pyrimidin-4-yl]-D-phenylalanine]"
25,2.87 µM,"CCc1sc2ncnc(N[C@H](Cc3ccccc3)C(=O)O)c2c1-c1cccc2[nH]ncc12 [Example 98, N-[6-ethyl-5-(1H-indazol-4-yl)thieno[2,3-d]pyrimidin-4-yl]-D-phenylalanine]"
26,4.75 µM,"CCc1sc2ncnc(NC(Cc3ccccc3)C(=O)O)c2c1-c1cccc2ccccc12 [Example 100, N-[6-ethyl-(5Ra)-5-(naphthalen-1-yl)thieno[2,3-d]pyrimidin-4-yl]-D-phenylalanine]"
27,0.462 µM,"CCc1sc2ncnc(NC(Cc3ccccc3)C(=O)O)c2c1-c1cccc2ccccc12 [Example 101, N-[6-ethyl-(5Sa)-5-(naphthalen-1-yl)thieno[2,3-d]pyrimidin-4-yl]-D-phenylalanine]"
28,0.073 µM,"C=Cc1sc2ncnc(NC(Cc3ccccc3)C(=O)O)c2c1-c1cccc2ccccc12 [Example 102, N-[6-ethenyl-(5Sa)-5-(naphthalen-1-yl)thieno[2,3-d]pyrimidin-4-yl]-D-phenylalanine]"

# Same assay, conditions: partial inhibitors; @ 7.4 μM test compound; read-out: percentage fluorescence polarisation inhibition, Mcl-1 FP
row,inhibition at 7.4 µM,SMILES
1,62.6%,"CCc1sc2ncnc(N[C@H](Cc3ccccc3)C(=O)O)c2c1-c1cccc2c1cnn2C [Example 87, N-[6-ethyl-5-(1-methyl-1H-indazol-4-yl)thieno[2,3-d]pyrimidin-4-yl]-D-phenylalanine]"

# Same assay, conditions: partial inhibitors; @ 10 μM test compound
row,"percentage fluorescence polarisation inhibition, Mcl-1 FP",SMILES
1,52.8% @ 10 μM,"CCc1sc2ncnc(N[C@@H](Cc3ccccc3)C(=O)O)c2c1-c1ccc(OCCN(C)C)c(Cl)c1C [Example 58, N-((5Ra)-5-{3-chloro-4-[2-(dimethylamino)ethoxy]-2-methylphenyl}-6-ethylthieno[2,3-d]pyrimidin-4-yl)-L-phenylalanine]"
2,12.18% @ 10 μM,"CCc1sc2ncnc(N[C@H](Cc3ccccc3)C(=O)O)c2c1-c1ccc(OCCN2CCN(C)CC2)c(Cl)c1C [Example 63, N-((5Ra)-5-{3-chloro-2-methyl-4-[2-(4-methylpiperazin-1-yl)ethoxy]phenyl}-6-ethylthieno[2,3-d]pyrimidin-4-yl)-D-phenylalanine]"

# Same assay, conditions: partial inhibitors; @ 200 μM test compound
row,"percentage fluorescence polarisation inhibition, Mcl-1 FP",SMILES
1,75.45% @ 200 μM,"CCc1sc2ncnc(N[C@H](Cc3ccccc3)C(=O)O)c2c1-c1ccnc(Cl)c1C [Example 77, N-[(5Ra)-5-(2-chloro-3-methylpyridin-4-yl)-6-ethylthieno[2,3-d]pyrimidin-4-yl]-D-phenylalanine]"
2,72.13% @ 200 μM,"CCc1sc2ncnc(N[C@H](Cc3ccccc3)C(=O)O)c2c1-c1cccc2cnn(C)c12 [Example 89, N-[6-ethyl-(5Ra)-5-(1-methyl-1H-indazol-7-yl)thieno[2,3-d]pyrimidin-4-yl]-D-phenylalanine]"

# Same assay, conditions: partial inhibitors; @ 200 μM test compound; read-out: percentage fluorescence polarisation inhibition, Mcl-1 FP
row,inhibition at 200 µM,SMILES
1,28.3%,"CCc1sc2ncnc(N[C@H](Cc3ccccc3)C(=O)O)c2c1-c1cccc2cccnc12 [Example 99, N-[6-ethyl-5-(quinolin-8-yl)thieno[2,3-d]pyrimidin-4-yl]-D-phenylalanine]"
